From patent publication US9447100B2, “Substituted pyrazolo[1,5-A] pyrimidines as calcium receptor modulating agents” (Takeda Pharmaceutical Company Limited, priority 2002, dated 2016) come the findings set out here.

Each structure is given as a SMILES string. Counter-ions that a name gives are not always drawn.

In general, melting point refers to the temperature, or range, at which the solid turns liquid.

`CCC(CC)(NC(=O)c1c(C)nn2c1NC(c1ccccc1)CC2(C)C)c1ccccc1F` (stereo not shown) (as salt: HCl) [Example 843, N-(1-ethyl-1-(2-fluorophenyl)propyl)-2,7,7-trimethyl-5-phenyl-4,5,6,7-tetrahydropyrazolo[1,5-a]pyrimidine-3-carboxamide] showed a melting point of 180 to 182 °C.

The compound `CCCC(CC)(CC)NC(=O)c1c(C)nn2c1NC(c1ccccc1)CC2(C)C` (stereo not shown) (as salt: HCl) [Example 838, N-(1,1-diethylbutyl)-2,7,7-trimethyl-5-phenyl-4,5,6,7-tetrahydropyrazolo[1,5-a]pyrimidine-3-carboxamide] came in with a melting point of 176 to 177 °C.

Turning to `CCC(CC)(NC(=O)c1c(C)nn2c1NC(c1ccccc1)CC2(C)C)c1ccc(Cl)cc1` (stereo not shown) [Example 696, N-(1-(4-chlorophenyl)-1-ethylpropyl)-2,7,7-trimethyl-5-phenyl-4,5,6,7-tetrahydropyrazolo[1,5-a]pyrimidine-3-carboxamide], the melting point lay in the range of 146 to 148 °C.

On to `CCC(C)(CC)NC(=O)c1cnn2c1NC(c1ccccc1)CC2(C)C` (stereo not shown) [Example 618, N-(1-ethyl-1-methylpropyl)-7,7-dimethyl-5-phenyl-4,5,6,7-tetrahydropyrazolo[1,5-a]pyrimidine-3-carboxamide], for which the melting point lay in the range of 88 to 89 °C.

In turn, `COc1ccccc1C1CC(C)(C)n2nc(C)c(C(=O)O)c2N1` (stereo not shown) [Example 944, 5-(2-methoxyphenyl)-2,7,7-trimethyl-4,5,6,7-tetrahydropyrazolo[1,5-a]pyrimidine-3-carboxylic acid] gave a melting point of 198 to 199 °C.

In turn, `CCC(CC)(NC(=O)c1cnn2c1NC(c1ccccc1)CC2(C)C)c1ccc(C(C)(C)C)cc1` (stereo not shown) [Example 417, N-(1-(4-tert-butylphenyl)-1-ethylpropyl)-7,7-dimethyl-5-phenyl-4,5,6,7-tetrahydropyrazolo[1,5-a]pyrimidine-3-carboxamide] came in with a melting point of 196 to 197 °C.

`CCC1(NC(=O)c2cnn3c2NC(c2ccccc2)CC3(C)C)CC[S+]([O-])CC1` (stereo not shown) [Example 623, N-(4-ethyl-1-oxidotetrahydro-2H-thiopyran-4-yl)-7,7-dimethyl-5-phenyl-4,5,6,7-tetrahydropyrazolo[1,5-a]pyrimidine-3-carboxamide] registered a melting point of 172 to 173 °C.

The compound `CCC(=O)Oc1ccc(C(CC)(CC)NC(=O)c2cnn3c2NC(c2ccccc2)CC3(C)C)cc1` (stereo not shown) [Example 729, 4-(1-(((7,7-dimethyl-5-phenyl-4,5,6,7-tetrahydropyrazolo[1,5-a]pyrimidin-3-yl)carbonyl)amino)-1-ethylpropyl)phenyl propionate] returned a melting point of 172 to 173 °C.

`CCC(CC)(NC(=O)c1cnn2c1NC(c1ccccc1)CC2(C)C)c1cccc(F)c1` (stereo not shown) [Example 615, N-(1-ethyl-1-(3-fluorophenyl)propyl)-7,7-dimethyl-5-phenyl-4,5,6,7-tetrahydropyrazolo[1,5-a]pyrimidine-3-carboxamide] yielded a melting point of 180 to 181 °C.

`CCC(CC)(CCOC)NC(=O)c1cnn2c1NC(c1ccccc1)CC2(C)C` (stereo not shown) [Example 664, N-(1,1-diethyl-3-methoxypropyl)-7,7-dimethyl-5-phenyl-4,5,6,7-tetrahydropyrazolo[1,5-a]pyrimidine-3-carboxamide] registered a melting point of 129 to 130 °C.

For the compound `Cc1nn2c(c1C(=O)NC13CC4CC(CC(C4)C1)C3)NC(c1ccccc1)CC2C(F)(F)F` (stereo not shown) [Example 42], the melting point was 162 to 163 °C.

`CCC(CC)(NC(=O)c1cnn2c1NC(c1ccccc1)CC2(C)C)c1ccc(Cl)cc1Cl` (stereo not shown) [Example 680, N-(1-(2,4-dichlorophenyl)-1-ethylpropyl)-7,7-dimethyl-5-phenyl-4,5,6,7-tetrahydropyrazolo[1,5-a]pyrimidine-3-carboxamide] showed a melting point of 220 to 222 °C.

In turn, `O=C(O)c1cnn2c1NC(c1ccco1)CC2C(F)(F)F` (stereo not shown) [Example 29, 5-(2-furyl)-7-(trifluoromethyl)-4,5,6,7-tetrahydropyrazolo[1,5-a]pyrimidine-3-carboxylic acid] yielded a melting point of 156 to 157 °C.

`COc1ccccc1C1CC(C)(C)n2ncc(C(=O)NC34CC5CC(CC(C5)C3)C4)c2N1` (stereo not shown) [Example 581, N-1-adamantyl-5-(2-methoxyphenyl)-7,7-dimethyl-4,5,6,7-tetrahydropyrazolo[1,5-a]pyrimidine-3-carboxamide] came in with a melting point of 280 to 282 °C.

Regarding `CCc1ccc(C(CC)(CC)NC(=O)c2cnn3c2NC(c2ccccc2)CC3(C)C)cc1` (stereo not shown) [Example 647, N-(1-ethyl-1-(4-ethylphenyl)propyl)-7,7-dimethyl-5-phenyl-4,5,6,7-tetrahydropyrazolo[1,5-a]pyrimidine-3-carboxamide], the melting point lay in the range of 156 to 157 °C.

With `CCC(CC)(NC(=O)c1c(C)nn2c1NC(c1ccccc1F)CC2(C)C)c1ccc(C)cc1` (stereo not shown) (as salt: HCl) [Example 831, N-(1-ethyl-1-(4-methylphenyl)propyl)-5-(2-fluorophenyl)-2,7,7-trimethyl-4,5,6,7-tetrahydropyrazolo[1,5-a]pyrimidine-3-carboxamide], the melting point fell in the range of 152 to 153 °C.

Consider `CCC(CC)(NC(=O)c1cnn2c1NC(c1ccc(OC)cc1)CC2(C)C)c1ccc(C)cc1` (stereo not shown) (as salt: HCl) [Example 960, N-[1-ethyl-1-(4-methylphenyl)propyl]-5-(4-methoxyphenyl)-7,7-dimethyl-4,5,6,7-tetrahydropyrazolo[1,5-a]pyrimidine-3-carboxamide], for which the melting point is 188 to 189 °C.

As for `Cc1nn2c(c1C(=O)NC(C)(C)c1ccc(Cl)cc1)NC(c1ccccc1)CC2(C)C` (stereo not shown) (as salt: HCl) [Example 792, N-(1-(4-chlorophenyl)-1-methylethyl)-2,7,7-trimethyl-5-phenyl-4,5,6,7-tetrahydropyrazolo[1,5-a]pyrimidine-3-carboxamide], the melting point was 204 to 205 °C.

Compound `O=C(CNC(=O)c1cnn2c1N[C@H](c1ccccc1)C[C@@H]2C(F)(F)F)c1cc2ccccc2o1` (stereo in doubt) [Example 285, N-(2-(1-benzofuran-2-yl)-2-oxoethyl)-5-phenyl-7-(trifluoromethyl)-4,5,6,7-tetrahydropyrazolo[1,5-a]pyrimidine-3-carboxamide] returned a melting point of 244 to 245 °C.

Compound `CC1(C)CC(c2ccccc2)Nc2c(C(=O)NC3(CO)CCCCC3)cnn21` (stereo not shown) [Example 644, N-(1-(hydroxymethyl)cyclo-hexyl)-7,7-dimethyl-5-phenyl-4,5,6,7-tetrahydropyrazolo[1,5-a]pyrimidine-3-carboxamide] showed a melting point of 175 to 176 °C.

With `Cc1nn2c(c1C(=O)O)NC(c1ccccc1)CC2(C)C` (single isomer, unassigned; (+)) [Example 1020, (+)-2,7,7-trimethyl-5-phenyl-4,5,6,7-tetrahydropyrazolo[1,5-a]pyrimidine-3-carboxylic acid], the melting point lay in the range of 190 to 192 °C.

`CC1(C)CC(c2ccccc2)Nc2c(C(=O)NC3(C(=O)O)CCCCC3)cnn21` (stereo not shown) [Example 625, 1-(((7,7-dimethyl-5-phenyl-4,5,6,7-tetrahydropyrazolo[1,5-a]pyrimidin-3-yl)carbonyl)amino)cyclo-hexanecarboxylic acid] displayed a melting point of 215 to 216 °C.

Take `CC(C)(Cc1ccc2ccccc2c1)NC(=O)c1cnn2c1NC(c1ccccc1)CC2C(F)(F)F` (stereo not shown) [Example 272, N-(1,1-dimethyl-2-(2-naphthyl)ethyl)-5-phenyl-7-(trifluoromethyl)-4,5,6,7-tetrahydropyrazolo[1,5-a]pyrimidine-3-carboxamide]: the melting point was 187 to 188 °C.

The compound `CCC(CC)(NC(=O)c1c(C)nn2c1NC(c1ccccc1)CC2(C)C)c1ccc(CO)cc1` (stereo not shown) [Example 955, N-(1-ethyl-1-(4-(hydroxy-methyl)phenyl)propyl)-2,7,7-trimethyl-5-phenyl-4,5,6,7-tetrahydropyrazolo[1,5-a]pyrimidine-3-carboxamide] gave a melting point of 146 to 147 °C.

For the compound `CCC(CC)(NC(=O)c1cnn2c1NC(C1CCCCC1)CC2(C)C)c1ccc(C(F)(F)F)cc1` (stereo not shown) [Example 676, 5-cyclohexyl-N-(1-ethyl-1-(4-(trifluoromethyl)phenyl)propyl)-7,7-dimethyl-4,5,6,7-tetrahydropyrazolo[1,5-a]pyrimidine-3-carboxamide], the melting point lay within 178.7 to 178.9 °C.

Compound `CNC(=O)c1cnn2c1NC(c1ccccc1)CC2(C)C` (stereo not shown) [Example 768, N,7,7-trimethyl-5-phenyl-4,5,6,7-tetrahydropyrazolo[1,5-a]pyrimidine-3-carboxamide] returned a melting point of 116 to 117 °C.

In turn, `CCC1(NC(=O)c2cnn3c2NC(c2ccccc2)CC3(C)C)CCS(=O)(=O)CC1` (stereo not shown) [Example 617, N-(4-ethyl-1,1-dioxidotetrahydro-2H-thiopyran-4-yl)-7,7-dimethyl-5-phenyl-4,5,6,7-tetrahydropyrazolo[1,5-a]pyrimidine-3-carboxamide] had a melting point of 155 to 156 °C.

Take `CCCC(CC)(CC)NC(=O)c1cnn2c1NC(c1ccccc1)CC2(C)C` (stereo not shown) [Example 646, N-(1,1-diethylbutyl)-7,7-dimethyl-5-phenyl-4,5,6,7-tetrahydropyrazolo[1,5-a]pyrimidine-3-carboxamide]: the melting point was 76 to 77 °C.

`CCC(CC)(NC(=O)c1cnn2c1NC(c1ccccc1)CC2(C)C)c1ccc(C(=O)OC(C)C)cc1` (stereo not shown) [Example 733, isopropyl 4-(1-(((7,7-dimethyl-5-phenyl-4,5,6,7-tetrahydropyrazolo[1,5-a]pyrimidin-3-yl)carbonyl)amino)-1-ethylpropyl)benzoate] showed a melting point of 205 to 206 °C.

`CCC(CC)(NC(=O)c1c(C)nn2c1NC(c1ccccc1F)CC2(C)C)c1ccc(N(C)C)cc1` (stereo not shown) (as salt: HCl) [Example 969, N-(1-(4-(dimethylamino)phenyl)-1-ethylpropyl)-5-(2-fluorophenyl)-2,7,7-trimethyl-4,5,6,7-tetrahydropyrazolo[1,5-a]pyrimidine-3-carboxamide]: the melting point is 152 to 153 °C.

Regarding `CC(C)(NC(=O)c1cnn2c1NC(c1ccccc1)CC2(C)C)c1ccc(Cl)cc1` (stereo not shown) (as salt: HCl) [Example 791, N-(1-(4-chlorophenyl)-1-methylethyl)-7,7-dimethyl-5-phenyl-4,5,6,7-tetrahydropyrazolo[1,5-a]pyrimidine-3-carboxamide], the melting point lay in the range of 207 to 208 °C.
